# Reference: paper PMC7381729, “A new class of PentixaFor- and PentixaTher-based theranostic agents with enhanced CXCR4-targeting efficiency” (Theranostics, 2020)
# Like-named read-outs stand apart in the source and are kept apart here. Where a SMILES comes first, the peptide text is derived from it. Side-chain parts run from the residue outwards. [ ]: non-standard residue; d: D form. The star is where a group is joined. DOTA = O=C(O)CN1CCN(CC(=O)O)CCN(CC(=O)*)CCN(CC(=O)O)CC1; dTyr(3-I) = N[C@H](Cc1ccc(O)c(I)c1)C(=O)O; 2Nal = N[C@@H](Cc1ccc2ccccc2c1)C(=O)O; dNMeOrn = CN[C@H](CCCN)C(=O)O; 4Abz = Nc1ccc(C(=O)O)cc1
# Assays:
# human CXCR4 (hCXCR4) = target: T1, human CXCR4 (hCXCR4) (Homo sapiens, UniProt P61073); experiment: Competition binding to hCXCR4, Jurkat cells, [125I]FC-131 as radioligand; settings: Jurkat cells 400.000 cells/sample, means ± SD of min. three separate experiments
# T1 construct: hCXCR4-expressing Jurkat human T-cell leukemia cells; endogenous in cells; host or cells: Jurkat human T-cell leukemia cells (whole cells)
# Method: Experiments were performed in triplicate with n=3 per concentration in each experiment. IC50 values were calculated using GraphPad Prism 6.01 (Graph Pad Software, San Diego, USA).
# Figure 2 Binding affinities (IC50 in nM) of the respective ^natGa-, ^natLu-, ^natY- and ^natBi-complexes of PentixaFor (entry 1), PentixaTher (entry 2) and a series of CPCR4-(blue) and iodoCPCR4-(black) derived analogs with modified linker structure (entries 3-14) to human CXCR4 (hCXCR4). […] Each experiment was performed in triplicate, and results are means ± SD from a minimum of three separate experiments. TEXT PRINTED IN THE PICTURE: 1: ^natGa-complex IC50 [nM]: 24.8 ± 2.5; ^natLu-complex IC50 [nM]: 41 ± 12; ^natY-complex IC50 [nM]: 40 ± 27 | 2: ^natGa-complex IC50 [nM]: 6.1 ± 1.5; ^natLu-complex IC50 [nM]: 14.6 ± 1.0; ^natY-complex IC50 [nM]: 20.4 ± 0.3; ^natBi-complex IC50 [nM]: 24.4 ± 3.7 | 3: ^natGa-complex IC50 [nM]: 282 ± 90; ^natLu-complex IC50 [nM]: 12.5 ± 3.2; ^natY-complex IC50 [nM]: 216 ± 33; ^natBi-complex IC50 [nM]: 27 ± 14 | 4: ^natGa-complex IC50 [nM]: 14.4 ± 0.3; ^natLu-complex IC50 [nM]: 28 ± 9; ^natY-complex IC50 [nM]: 83 ± 30 | 5: ^natLu-complex IC50 [nM]: 106 ± 10 | 6: ^natGa-complex IC50 [nM]: 7.9 ± 1.1; ^natLu-complex IC50 [nM]: 5.9 ± 0.3; ^natY-complex IC50 [nM]: 6.7 ± 1.2; ^natBi-complex IC50 [nM]: 14.5 ± 0.2 | 7: ^natGa-complex IC50 [nM]: 47 ± 8; ^natLu-complex IC50 [nM]: 39 ± 1; ^natY-complex IC50 [nM]: 43 ± 2 | 8: ^natGa-complex IC50 [nM]: 3.6 ± 0.7; ^natLu-complex IC50 [nM]: 3.5 ± 0.3; ^natY-complex IC50 [nM]: 4.1 ± 1.3; ^natBi-complex IC50 [nM]: 3.5 ± 0.4 | 9: ^natGa-complex IC50 [nM]: 8.9 ± 3.8; ^natLu-complex IC50 [nM]: 8.0 ± 3.1; ^natY-complex IC50 [nM]: 6.3 ± 2.5 | 10: ^natGa-complex IC50 [nM]: 2.4 ± 0.1; ^natLu-complex IC50 [nM]: 3.6 ± 1.1; ^natY-complex IC50 [nM]: 2.4 ± 0.2; ^natBi-complex IC50 [nM]: 38 ± 25 | 11: ^natGa-complex IC50 [nM]: 9.7 ± 2.8; ^natLu-complex IC50 [nM]: 5.4 ± 1.6; ^natY-complex IC50 [nM]: 8.7 ± 2.9 | 12: ^natGa-complex IC50 [nM]: 1.4 ± 0.2; ^natLu-complex IC50 [nM]: 2.1 ± 0.3; ^natY-complex IC50 [nM]: 2.1 ± 0.3; ^natBi-complex IC50 [nM]: 2.9 ± 0.1 | 13: ^natGa-complex IC50 [nM]: 0.4 ± 0.1; ^natLu-complex IC50 [nM]: 1.5 ± 0.1; ^natY-complex IC50 [nM]: 1.5 ± 0.1 | 14: ^natGa-complex IC50 [nM]: 2.6 ± 1.0; ^natLu-complex IC50 [nM]: 1.7 ± 0.6; ^natY-complex IC50 [nM]: 1.6 ± 0.5; ^natBi-complex IC50 [nM]: 1.8 ± 0.8
# [1] = Biodistribution in Daudi xenograft bearing mice; format: in vivo, mouse; settings: female, CB-17 SCID, mouse, iv, total radioactivity, means ± SD; for tissue uptake at 6 h: 6h p.i.; for tissue uptake at 48 h / tissue to tissue ratio at 48 h: 48h p.i.; for tissue to tissue ratio at 48 h: n=4-5 animals
# Method: The biodistribution of selected compounds was investigated in Daudi (human B-cell lymphoma) xenograft bearing female CB-17 SCID mice (6-8 weeks, Charles River, Sulzfeld, Germany), [29]. All animal experiments were performed in accordance with current animal welfare regulations in Germany (approval #55.2-1-54-2532-71-13).
# Animals (n=4-5 per group) were injected intravenously with 5-10 MBq (0.08-0.11 nmol peptide per mouse) of the respective ^68Ga- and^ 177Lu-labeled CXCR4 ligands in PBS (100 µL) into the tail vein under isoflurane anesthesia. CXCR4-specificity of binding was determined by coinjection of 50 µg AMD3100 per mouse. The animals were sacrificed 1, 6 and 48h post injection (p.i.), and the organs of interest were dissected. The radioactivity was measured in weighted tissue samples using a γ-counter. Data are expressed in % ID/g tissue (mean ± SD).
# [2] = natLu-complex, read-out: ^natLu-complex IC50 to hCXCR4
# [3] = natGa-complex, read-out: ^natGa-complex IC50 to hCXCR4
# [4] = natY-complex, read-out: ^natY-complex IC50 to hCXCR4
# [5] = adrenals, i.v., n=4-5, read-out: Biodistribution adrenals
# [6] = blood, i.v., n=4-5, read-out: Biodistribution blood
# [7] = colon, i.v., n=4-5, read-out: Biodistribution colon
# [8] = femur, i.v., n=4-5, read-out: Biodistribution femur
# [9] = heart, i.v., n=4-5, read-out: Biodistribution heart
# [10] = kidney, i.v., n=4-5, read-out: Biodistribution kidney
# [11] = liver, i.v., n=4-5, read-out: Biodistribution liver
# [12] = lung, i.v., n=4-5, read-out: Biodistribution lung
# [13] = muscle, i.v., n=4-5, read-out: Biodistribution muscle
# [14] = pancreas, i.v., n=4-5, read-out: Biodistribution pancreas
# [15] = small intestine, i.v., n=4-5, read-out: Biodistribution small intestine
# [16] = spleen, i.v., n=4-5, read-out: Biodistribution spleen
# [17] = stomach, i.v., n=4-5, read-out: Biodistribution stomach
# [18] = tumor (Daudi xenograft), i.v., n=4-5, read-out: Biodistribution tumor (Daudi xenograft)
# T1 sequence (P61073 whole entry): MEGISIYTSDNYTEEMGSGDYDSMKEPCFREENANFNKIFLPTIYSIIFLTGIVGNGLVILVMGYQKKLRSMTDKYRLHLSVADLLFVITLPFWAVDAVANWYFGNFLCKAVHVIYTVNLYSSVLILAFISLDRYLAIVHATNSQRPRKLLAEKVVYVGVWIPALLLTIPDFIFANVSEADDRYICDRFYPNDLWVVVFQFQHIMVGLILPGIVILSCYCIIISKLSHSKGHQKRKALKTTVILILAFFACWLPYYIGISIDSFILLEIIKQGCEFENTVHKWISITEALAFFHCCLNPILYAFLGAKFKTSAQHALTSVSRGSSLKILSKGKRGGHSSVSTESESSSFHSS
compound,measurement,setting,value
DOTA-d-ABA-iodoCPCR4 (head to tail) [entry 5],IC50,human CXCR4 (hCXCR4); [2],106 ± 10 nM
DOTA-ABA-iodoCPCR4 (head to tail) [entry 3],IC50,"human CXCR4 (hCXCR4); natBi-complex, read-out: ^natBi-complex IC50 to hCXCR4",27 ± 14 nM
same,IC50,human CXCR4 (hCXCR4); [3],282 ± 90 nM
same,IC50,human CXCR4 (hCXCR4); [2],12.5 ± 3.2 nM
same,IC50,human CXCR4 (hCXCR4); [4],216 ± 33 nM
DOTAGA-G-ABA-iodoCPCR4 (head to tail) [entry 7],IC50,human CXCR4 (hCXCR4); [3],47 ± 8 nM
same,IC50,human CXCR4 (hCXCR4); [2],39 ± 1 nM
same,IC50,human CXCR4 (hCXCR4); [4],43 ± 2 nM
"C[C@@H](NC(=O)[C@@H](CCCNC(=N)N)NC(=O)CN1CCN(CC(=O)O)CCN(CC(=O)O)CCN(CC(=O)O)CC1)C(=O)Nc1ccc(C(=O)NCCC[C@@H]2C(=O)N[C@@H](CCCNC(=N)N)C(=O)N[C@@H](Cc3ccc4ccccc4c3)C(=O)NCC(=O)N[C@H](Cc3ccc(O)c(I)c3)C(=O)N2C)cc1 [[^177Lu]DOTA-r-a-ABA-iodoCPCR4, metal not drawn] (cyclo([2Nal]G[dTyr(3-I)][dNMeOrn]([4Abz-dA-dR-DOTA])R))",tissue uptake at 6 h,[1]; [5],0.68 ± 0.21 %ID/g
same,tissue uptake at 48 h,[1]; [5],0.6 ± 0.12 %ID/g
same,tissue uptake at 6 h,[1]; [6],0.17 ± 0.09 %ID/g
same,tissue uptake at 48 h,[1]; [6],0.03 ± 0.01 %ID/g
same,tissue uptake at 1 h,"[1]; brain, 1h p.i., tracer only, i.v., γ-counter, n=4-5, read-out: Biodistribution brain",0.08 ± 0.01 %ID/g
same,tissue uptake at 6 h,[1]; [7],0.49 ± 0.2 %ID/g
same,tissue uptake at 48 h,[1]; [7],0.43 ± 0.3 %ID/g
same,tissue uptake at 6 h,[1]; [8],0.56 ± 0.23 %ID/g
same,tissue uptake at 48 h,[1]; [8],0.34 ± 0.08 %ID/g
same,tissue uptake at 6 h,[1]; [9],0.28 ± 0.05 %ID/g
same,tissue uptake at 48 h,[1]; [9],0.19 ± 0.02 %ID/g
same,tissue uptake at 6 h,[1]; [10],3.2 ± 0.45 %ID/g
same,tissue uptake at 48 h,[1]; [10],2.58 ± 0.69 %ID/g
same,tissue uptake at 6 h,[1]; [11],17.1 ± 3.09 %ID/g
same,tissue uptake at 48 h,[1]; [11],14.6 ± 2 %ID/g
same,tissue uptake at 6 h,[1]; [12],1.07 ± 0.26 %ID/g
same,tissue uptake at 48 h,[1]; [12],0.57 ± 0.04 %ID/g
same,tissue uptake at 6 h,[1]; [13],0.06 ± 0.01 %ID/g
same,tissue uptake at 48 h,[1]; [13],0.04 %ID/g
same,tissue uptake at 6 h,[1]; [14],0.11 ± 0.02 %ID/g
same,tissue uptake at 48 h,[1]; [14],0.09 ± 0.01 %ID/g
same,tissue uptake at 6 h,[1]; [15],0.24 ± 0.06 %ID/g
same,tissue uptake at 48 h,[1]; [15],0.16 ± 0.06 %ID/g
same,tissue uptake at 6 h,[1]; [16],2.95 ± 0.75 %ID/g
same,tissue uptake at 48 h,[1]; [16],2.72 ± 0.5 %ID/g
same,tissue uptake at 6 h,[1]; [17],0.25 ± 0.09 %ID/g
same,tissue uptake at 48 h,[1]; [17],0.14 ± 0.02 %ID/g
same,tissue uptake at 6 h,[1]; [18],12.5 ± 2.56 %ID/g
same,tissue uptake at 48 h,[1]; [18],8.11 ± 0.96 %ID/g
same,tissue to tissue ratio at 48 h,"[1]; tumor / blood, read-out: Tumor/organ ratio t/blood",320 ± 104
same,tissue to tissue ratio at 48 h,"[1]; tumor / colon, read-out: Tumor/organ ratio t/colon",19 ± 13
same,tissue to tissue ratio at 48 h,"[1]; tumor / heart, read-out: Tumor/organ ratio t/heart",42 ± 7
same,tissue to tissue ratio at 48 h,"[1]; tumor / kidney, read-out: Tumor/organ ratio t/kidney",3.1 ± 0.9
same,tissue to tissue ratio at 48 h,"[1]; tumor / liver, read-out: Tumor/organ ratio t/liver",0.6 ± 0.1
same,tissue to tissue ratio at 48 h,"[1]; tumor / lung, read-out: Tumor/organ ratio t/lung",14 ± 2
same,tissue to tissue ratio at 48 h,"[1]; tumor / muscle, read-out: Tumor/organ ratio t/muscle",226 ± 36
same,tissue to tissue ratio at 48 h,"[1]; tumor / small intestine, read-out: Tumor/organ ratio t/small intestine",50 ± 20
same,tissue to tissue ratio at 48 h,"[1]; tumor / spleen, read-out: Tumor/organ ratio t/spleen",3 ± 0.7
same,tissue to tissue ratio at 48 h,"[1]; tumor / stomach, read-out: Tumor/organ ratio t/stomach",58 ± 12
